Measured values as given in PubChem BioAssay AID1963866 (Molecular Pharmacology Branch, DTP, NCI, 2024).
pIC50: −log10 of the molar value.

Tested on: PDC KRAS tumor spheroids with HUVEC/MSC, viability
Test: Anticancer human tumor 349418-098-R-PDC patient-derived lung adenocarcinoma cell line growth inhibition [KRAS2]
Conditions: for pIC50: curve of first compound; for viability, T/C: stronger effect = lower value
Method in brief: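 KRAS-mutant tumor cells were grown as spheroids with HUVEC endothelial cells and human MSCs as stroma. Targeted agents were tested alone and with KRAS pathway inhibitors. Doses started at or near clinical Cmax, or 10 microM, descending half-log.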

[1] = second compound 0.1 µM, first compound 0.0316 µM
[2] = second compound 0.1 µM, first compound 0.1 µM
[3] = second compound 0.1 µM, first compound 0.316 µM
[4] = second compound 0.1 µM, first compound 1 µM
[5] = second compound 0.1 µM, first compound 3.16 µM
[6] = second compound 0.316 µM, first compound 0.0316 µM
[7] = second compound 0.316 µM, first compound 0.1 µM
[8] = second compound 0.316 µM, first compound 0.316 µM
[9] = second compound 0.316 µM, first compound 1 µM
[10] = second compound 0.316 µM, first compound 3.16 µM
[11] = second compound 1 µM, first compound 0.0316 µM
[12] = second compound 1 µM, first compound 0.1 µM
[13] = second compound 1 µM, first compound 0.316 µM
[14] = second compound 1 µM, first compound 1 µM
[15] = second compound 1 µM, first compound 3.16 µM
[16] = second compound 3.16 µM, first compound 0.0316 µM
[17] = second compound 3.16 µM, first compound 0.1 µM
[18] = second compound 3.16 µM, first compound 0.316 µM
[19] = second compound 3.16 µM, first compound 1 µM
[20] = second compound 3.16 µM, first compound 3.16 µM
[21] = second compound 10 µM, first compound 0.0316 µM
[22] = second compound 10 µM, first compound 0.1 µM
[23] = second compound 10 µM, first compound 0.316 µM
[24] = second compound 10 µM, first compound 1 µM
[25] = second compound 10 µM, first compound 3.16 µM
[26] = second compound 0.1 µM, first compound 10 µM
[27] = second compound 0.316 µM, first compound 10 µM
[28] = second compound 1 µM, first compound 10 µM
[29] = second compound 3.16 µM, first compound 10 µM
[30] = second compound 10 µM, first compound 10 µM
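Note: spheroids exposed to compounds for seven days before readout.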

CC(=O)OC12COC1CC(O)C1(C)C(=O)C(O)C3=C(C)C(OC(=O)C(O)C(NC(=O)OC(C)(C)C)c4ccccc4)CC(O)(C(OC(=O)c4ccccc4)C21)C3(C)C (stereo not given) + COc1cc2nc(C)nc(NC(C)c3cc(N)cc(C(F)(F)F)c3)c2cc1OC1CCOC1
pIC50 (second compound 0.1 µM): > 8.00 | pIC50 (second compound 0.316 µM): > 8.00 | pIC50 (second compound 1 µM): > 8.00 | pIC50 (second compound 3.16 µM): > 8.00 | pIC50 (second compound 10 µM): > 8.00 | viability, T/C (second compound 0.1 µM, first compound 0.01 µM): 22% | viability, T/C [1]: 25.7% | viability, T/C [2]: 24% | viability, T/C [3]: 33.4% | viability, T/C [4]: 27.4% | viability, T/C [5]: 38.3% | viability, T/C (second compound 0.316 µM, first compound 0.01 µM): 20.7% | viability, T/C [6]: 27.1% | viability, T/C [7]: 25.8% | viability, T/C [8]: 23.7% | viability, T/C [9]: 28.6% | viability, T/C [10]: 34.5% | viability, T/C (second compound 1 µM, first compound 0.01 µM): 22.8% | viability, T/C [11]: 31.1% | viability, T/C [12]: 27.4% | viability, T/C [13]: 33.7% | viability, T/C [14]: 27.8% | viability, T/C [15]: 29.6% | viability, T/C (second compound 3.16 µM, first compound 0.01 µM): 18.3% | viability, T/C [16]: 21.3% | viability, T/C [17]: 21.7% | viability, T/C [18]: 26.3% | viability, T/C [19]: 28.3% | viability, T/C [20]: 22.1% | viability, T/C (second compound 10 µM, first compound 0.01 µM): 20.1% | viability, T/C [21]: 23.3% | viability, T/C [22]: 25.4% | viability, T/C [23]: 20.4% | viability, T/C [24]: 23.2% | viability, T/C [25]: 26.2%

COC(=O)c1ccc2c(C(=Nc3ccc(N(C)C(=O)CN4CCN(C)CC4)cc3)c3ccccc3)c(O)[nH]c2c1 + CNCc1ccccc1-c1csc(C(C)Nc2nc(C)nc3cc(OC)c(OC)cc23)c1
pIC50 (second compound 0.1 µM): 6.35 | pIC50 (second compound 0.316 µM): 6.57 | pIC50 (second compound 1 µM): 7.27 | pIC50 (second compound 3.16 µM): > 7.50 | pIC50 (second compound 10 µM): > 7.50 | viability, T/C [1]: 84.1% | viability, T/C [2]: 96.6% | viability, T/C [3]: 55.8% | viability, T/C [4]: 29.8% | viability, T/C [5]: 12.4% | viability, T/C [26]: 12.9% | viability, T/C [6]: 75.3% | viability, T/C [7]: 84.9% | viability, T/C [8]: 42.5% | viability, T/C [9]: 25.7% | viability, T/C [10]: 6.84% | viability, T/C [27]: 13% | viability, T/C [11]: 56.5% | viability, T/C [12]: 41.4% | viability, T/C [13]: 27.6% | viability, T/C [14]: 10.6% | viability, T/C [15]: 1.75% | viability, T/C [28]: 1.57% | viability, T/C [16]: 0.32% | viability, T/C [17]: 0.25% | viability, T/C [18]: 0.19% | viability, T/C [19]: 0.06% | viability, T/C [20]: 0.13% | viability, T/C [29]: 0.15% | viability, T/C [21]: 0.09% | viability, T/C [22]: 0.07% | viability, T/C [23]: 0.06% | viability, T/C [24]: 0.06% | viability, T/C [25]: 0.05% | viability, T/C [30]: 0.09%

CC1(C)CCC(CN2CCN(c3ccc(C(=O)NS(=O)(=O)c4ccc(NCC5CCOCC5)c([N+](=O)[O-])c4)c(Oc4cnc5[nH]ccc5c4)c3)CC2)=C(c2ccc(Cl)cc2)C1 + COc1cc2nc(C)nc(NC(C)c3cc(N)cc(C(F)(F)F)c3)c2cc1OC1CCOC1
pIC50 (second compound 0.1 µM): 5.75 | pIC50 (second compound 0.316 µM): 5.73 | pIC50 (second compound 1 µM): 5.75 | pIC50 (second compound 3.16 µM): 5.81 | pIC50 (second compound 10 µM): > 7.50 | viability, T/C [1]: 104% | viability, T/C [2]: 103% | viability, T/C [3]: 105% | viability, T/C [4]: 85.1% | viability, T/C [5]: 14% | viability, T/C [26]: 5.48% | viability, T/C [6]: 104% | viability, T/C [7]: 97.9% | viability, T/C [8]: 95.3% | viability, T/C [9]: 90.6% | viability, T/C [10]: 15.3% | viability, T/C [27]: 4.54% | viability, T/C [11]: 102% | viability, T/C [12]: 94.2% | viability, T/C [13]: 95.7% | viability, T/C [14]: 86.1% | viability, T/C [15]: 12.8% | viability, T/C [28]: 3.87% | viability, T/C [16]: 78.9% | viability, T/C [17]: 93.9% | viability, T/C [18]: 86% | viability, T/C [19]: 75.1% | viability, T/C [20]: 10.2% | viability, T/C [29]: 5.85% | viability, T/C [21]: 35.2% | viability, T/C [22]: 32.9% | viability, T/C [23]: 32.3% | viability, T/C [24]: 21.9% | viability, T/C [25]: 4.35% | viability, T/C [30]: 2.8%
